What all share (type): functional
For test [1], the target named is Peroxisome proliferator-activated receptor gamma/Nuclear receptor coactivator 2 (Homo sapiens, UniProt P37231).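 Note: agonist potency for raising coactivator recruitment to the receptor.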
In test [2] the target is Peroxisome proliferator-activated receptor gamma/Nuclear receptor coactivator 1 (Homo sapiens, UniProt P37231).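 Note: agonist potency as compounds enhance coactivator SRC-1 recruitment to PPARgamma.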
Test [3] concerns the target Peroxisome proliferator-activated receptor gamma/Nuclear receptor coactivator 3 (Homo sapiens, UniProt P37231).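 Note: agonist potency for raising coactivator recruitment to the receptor.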
The target in test [4] is T1, Short transient receptor potential channel 4 (Mus musculus, UniProt Q9QUQ5).
T1 sequence (Q9QUQ5 whole entry): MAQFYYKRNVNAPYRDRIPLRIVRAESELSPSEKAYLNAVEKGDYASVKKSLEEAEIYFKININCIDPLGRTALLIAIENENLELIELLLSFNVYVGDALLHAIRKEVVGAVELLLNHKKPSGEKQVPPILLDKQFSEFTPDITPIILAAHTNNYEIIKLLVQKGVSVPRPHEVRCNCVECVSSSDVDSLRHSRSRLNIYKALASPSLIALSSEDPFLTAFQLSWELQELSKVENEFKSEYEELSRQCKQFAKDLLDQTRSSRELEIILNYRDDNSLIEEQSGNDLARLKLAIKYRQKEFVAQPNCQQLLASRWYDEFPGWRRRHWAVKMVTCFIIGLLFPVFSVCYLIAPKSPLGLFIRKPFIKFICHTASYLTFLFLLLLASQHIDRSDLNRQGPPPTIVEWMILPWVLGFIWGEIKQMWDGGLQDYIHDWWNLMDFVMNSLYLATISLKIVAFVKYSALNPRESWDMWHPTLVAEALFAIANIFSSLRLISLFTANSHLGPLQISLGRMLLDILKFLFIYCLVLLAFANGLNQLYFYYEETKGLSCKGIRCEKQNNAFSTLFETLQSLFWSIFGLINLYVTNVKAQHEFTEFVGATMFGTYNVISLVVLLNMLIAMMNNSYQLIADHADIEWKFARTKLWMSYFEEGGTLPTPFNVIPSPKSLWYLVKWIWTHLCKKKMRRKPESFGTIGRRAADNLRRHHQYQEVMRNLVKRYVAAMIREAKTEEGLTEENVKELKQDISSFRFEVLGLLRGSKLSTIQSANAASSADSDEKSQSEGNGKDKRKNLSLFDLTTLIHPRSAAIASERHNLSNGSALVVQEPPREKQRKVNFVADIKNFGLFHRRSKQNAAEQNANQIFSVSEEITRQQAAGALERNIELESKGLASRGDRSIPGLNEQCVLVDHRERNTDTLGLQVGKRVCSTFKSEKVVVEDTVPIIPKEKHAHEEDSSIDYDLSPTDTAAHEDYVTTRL
Description: block of DAMGO-driven TRPC4 calcium entry – cell-based, HEK293 TRPC4/mu-opioid, Fluo-4 calcium, dose response (AID 434942).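 Note: potency of inhibitors blocking the TRPC4 calcium response.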

The target of test [5] is T2, High affinity choline transporter 1 (Homo sapiens, UniProt Q9GZV3).
T2 sequence (Q9GZV3 whole entry): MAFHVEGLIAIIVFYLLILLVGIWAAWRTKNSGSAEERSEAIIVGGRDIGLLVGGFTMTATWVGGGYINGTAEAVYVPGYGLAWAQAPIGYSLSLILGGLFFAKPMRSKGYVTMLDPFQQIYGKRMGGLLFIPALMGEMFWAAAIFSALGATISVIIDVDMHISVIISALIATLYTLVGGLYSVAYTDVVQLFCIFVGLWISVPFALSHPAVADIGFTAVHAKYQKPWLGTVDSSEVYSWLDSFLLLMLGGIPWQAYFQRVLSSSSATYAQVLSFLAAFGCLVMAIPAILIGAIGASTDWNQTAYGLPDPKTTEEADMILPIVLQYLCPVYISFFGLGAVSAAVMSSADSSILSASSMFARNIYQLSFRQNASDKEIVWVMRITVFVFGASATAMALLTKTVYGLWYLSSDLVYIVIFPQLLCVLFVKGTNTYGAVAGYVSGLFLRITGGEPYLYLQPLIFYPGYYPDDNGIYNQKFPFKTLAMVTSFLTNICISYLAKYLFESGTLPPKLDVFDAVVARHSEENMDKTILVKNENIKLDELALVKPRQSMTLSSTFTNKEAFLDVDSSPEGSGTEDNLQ
Description: human choline transporter blockers, potency – cell-based, 5-point CRC, membrane potential dye, dose response (AID 504840).

Test [6] is described as follows: microbe, parasite or virus in culture. The following applies: Mycobacterium tuberculosis.
Test [7] addresses Induced myeloid leukemia cell differentiation protein Mcl-1 (Homo sapiens, UniProt Q07820).
The next test addresses T3, Protein skinhead-1 (Caenorhabditis elegans, UniProt P34707).
T3 sequence (P34707 whole entry): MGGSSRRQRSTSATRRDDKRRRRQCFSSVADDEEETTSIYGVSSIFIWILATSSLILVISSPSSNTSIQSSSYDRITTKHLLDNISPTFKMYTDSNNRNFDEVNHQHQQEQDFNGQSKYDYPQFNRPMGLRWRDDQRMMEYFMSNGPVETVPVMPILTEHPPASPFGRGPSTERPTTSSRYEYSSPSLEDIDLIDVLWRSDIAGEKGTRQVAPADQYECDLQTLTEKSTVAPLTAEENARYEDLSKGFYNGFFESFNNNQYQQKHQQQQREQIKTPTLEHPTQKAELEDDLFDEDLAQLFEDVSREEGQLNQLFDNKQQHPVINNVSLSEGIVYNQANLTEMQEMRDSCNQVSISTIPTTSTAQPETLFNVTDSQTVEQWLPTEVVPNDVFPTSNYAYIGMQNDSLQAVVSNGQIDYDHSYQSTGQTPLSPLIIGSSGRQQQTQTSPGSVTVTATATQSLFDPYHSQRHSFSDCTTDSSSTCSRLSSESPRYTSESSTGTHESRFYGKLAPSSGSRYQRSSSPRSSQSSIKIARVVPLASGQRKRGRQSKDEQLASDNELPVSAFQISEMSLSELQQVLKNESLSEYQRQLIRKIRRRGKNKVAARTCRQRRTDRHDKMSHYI

Active and inactive are the calls of the source.

The EC50 is the concentration needed to bring the measured effect to its halfway point. What is called IC50 is the concentration needed to halve the response being measured.

Induced myeloid leukemia cell differentiation protein Mcl-1, sequence (Q07820 whole entry): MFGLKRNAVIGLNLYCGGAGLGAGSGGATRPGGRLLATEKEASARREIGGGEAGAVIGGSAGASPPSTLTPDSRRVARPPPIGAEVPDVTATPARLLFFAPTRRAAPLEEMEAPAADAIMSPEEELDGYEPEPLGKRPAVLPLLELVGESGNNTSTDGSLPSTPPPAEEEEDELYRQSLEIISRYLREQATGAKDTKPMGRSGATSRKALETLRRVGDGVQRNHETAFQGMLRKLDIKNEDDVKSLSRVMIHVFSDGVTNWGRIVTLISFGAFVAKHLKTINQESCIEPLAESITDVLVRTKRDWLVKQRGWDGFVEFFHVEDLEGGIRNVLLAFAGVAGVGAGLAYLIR
Peroxisome proliferator-activated receptor gamma/Nuclear receptor coactivator 1, sequence (P37231 whole entry): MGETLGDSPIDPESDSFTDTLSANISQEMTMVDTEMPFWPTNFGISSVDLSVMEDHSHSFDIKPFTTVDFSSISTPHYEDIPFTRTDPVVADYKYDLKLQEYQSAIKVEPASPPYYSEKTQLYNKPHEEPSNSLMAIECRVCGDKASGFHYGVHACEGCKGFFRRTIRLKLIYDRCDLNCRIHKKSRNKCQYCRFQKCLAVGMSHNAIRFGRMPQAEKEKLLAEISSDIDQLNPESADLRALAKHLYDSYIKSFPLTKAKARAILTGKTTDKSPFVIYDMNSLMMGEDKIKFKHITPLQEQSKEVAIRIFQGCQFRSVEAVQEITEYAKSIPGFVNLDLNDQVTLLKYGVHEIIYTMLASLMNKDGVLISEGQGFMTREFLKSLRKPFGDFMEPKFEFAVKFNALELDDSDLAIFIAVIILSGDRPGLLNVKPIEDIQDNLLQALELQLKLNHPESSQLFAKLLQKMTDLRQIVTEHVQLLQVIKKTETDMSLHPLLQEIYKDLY
Peroxisome proliferator-activated receptor gamma/Nuclear receptor coactivator 1, sequence (Q15788 whole entry, further chain): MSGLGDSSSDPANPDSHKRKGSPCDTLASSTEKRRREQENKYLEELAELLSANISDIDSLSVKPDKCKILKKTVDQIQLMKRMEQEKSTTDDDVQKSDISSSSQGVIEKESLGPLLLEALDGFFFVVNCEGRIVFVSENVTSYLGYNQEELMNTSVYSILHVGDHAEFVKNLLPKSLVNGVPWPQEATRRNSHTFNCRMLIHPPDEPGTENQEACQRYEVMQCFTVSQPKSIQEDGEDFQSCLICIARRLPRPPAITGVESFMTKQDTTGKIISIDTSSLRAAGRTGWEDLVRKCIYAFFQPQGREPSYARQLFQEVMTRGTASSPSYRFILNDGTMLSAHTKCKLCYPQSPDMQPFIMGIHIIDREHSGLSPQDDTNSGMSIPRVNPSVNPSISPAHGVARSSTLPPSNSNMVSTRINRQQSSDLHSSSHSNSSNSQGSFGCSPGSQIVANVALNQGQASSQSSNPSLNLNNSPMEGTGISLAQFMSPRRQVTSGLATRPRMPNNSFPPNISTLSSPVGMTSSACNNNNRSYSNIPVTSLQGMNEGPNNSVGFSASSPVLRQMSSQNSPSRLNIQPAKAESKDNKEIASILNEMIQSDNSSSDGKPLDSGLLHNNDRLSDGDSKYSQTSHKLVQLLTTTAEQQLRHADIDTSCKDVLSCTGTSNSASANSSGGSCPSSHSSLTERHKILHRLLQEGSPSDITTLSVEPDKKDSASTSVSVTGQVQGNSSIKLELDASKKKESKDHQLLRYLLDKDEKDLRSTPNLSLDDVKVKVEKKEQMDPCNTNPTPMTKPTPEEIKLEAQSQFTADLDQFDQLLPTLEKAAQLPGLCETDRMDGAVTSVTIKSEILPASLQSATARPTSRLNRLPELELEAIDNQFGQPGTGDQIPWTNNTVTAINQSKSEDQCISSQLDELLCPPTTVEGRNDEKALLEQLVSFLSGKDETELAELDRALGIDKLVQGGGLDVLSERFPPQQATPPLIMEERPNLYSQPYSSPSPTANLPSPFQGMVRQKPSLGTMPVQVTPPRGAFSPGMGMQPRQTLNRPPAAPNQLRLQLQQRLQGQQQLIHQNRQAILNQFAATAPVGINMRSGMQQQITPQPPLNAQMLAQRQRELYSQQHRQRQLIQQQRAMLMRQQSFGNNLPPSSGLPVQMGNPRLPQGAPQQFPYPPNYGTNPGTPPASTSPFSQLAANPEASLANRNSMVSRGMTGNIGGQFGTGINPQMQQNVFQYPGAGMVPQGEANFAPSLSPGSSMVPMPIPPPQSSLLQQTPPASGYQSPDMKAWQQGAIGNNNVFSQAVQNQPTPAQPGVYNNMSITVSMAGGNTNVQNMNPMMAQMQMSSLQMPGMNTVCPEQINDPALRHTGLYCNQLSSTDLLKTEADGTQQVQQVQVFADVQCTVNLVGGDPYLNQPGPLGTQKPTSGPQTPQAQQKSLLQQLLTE
Peroxisome proliferator-activated receptor gamma/Nuclear receptor coactivator 3, sequence (P37231 whole entry): as the sequence (P37231 whole entry) above
Peroxisome proliferator-activated receptor gamma/Nuclear receptor coactivator 3, sequence (Q9Y6Q9 whole entry, further chain): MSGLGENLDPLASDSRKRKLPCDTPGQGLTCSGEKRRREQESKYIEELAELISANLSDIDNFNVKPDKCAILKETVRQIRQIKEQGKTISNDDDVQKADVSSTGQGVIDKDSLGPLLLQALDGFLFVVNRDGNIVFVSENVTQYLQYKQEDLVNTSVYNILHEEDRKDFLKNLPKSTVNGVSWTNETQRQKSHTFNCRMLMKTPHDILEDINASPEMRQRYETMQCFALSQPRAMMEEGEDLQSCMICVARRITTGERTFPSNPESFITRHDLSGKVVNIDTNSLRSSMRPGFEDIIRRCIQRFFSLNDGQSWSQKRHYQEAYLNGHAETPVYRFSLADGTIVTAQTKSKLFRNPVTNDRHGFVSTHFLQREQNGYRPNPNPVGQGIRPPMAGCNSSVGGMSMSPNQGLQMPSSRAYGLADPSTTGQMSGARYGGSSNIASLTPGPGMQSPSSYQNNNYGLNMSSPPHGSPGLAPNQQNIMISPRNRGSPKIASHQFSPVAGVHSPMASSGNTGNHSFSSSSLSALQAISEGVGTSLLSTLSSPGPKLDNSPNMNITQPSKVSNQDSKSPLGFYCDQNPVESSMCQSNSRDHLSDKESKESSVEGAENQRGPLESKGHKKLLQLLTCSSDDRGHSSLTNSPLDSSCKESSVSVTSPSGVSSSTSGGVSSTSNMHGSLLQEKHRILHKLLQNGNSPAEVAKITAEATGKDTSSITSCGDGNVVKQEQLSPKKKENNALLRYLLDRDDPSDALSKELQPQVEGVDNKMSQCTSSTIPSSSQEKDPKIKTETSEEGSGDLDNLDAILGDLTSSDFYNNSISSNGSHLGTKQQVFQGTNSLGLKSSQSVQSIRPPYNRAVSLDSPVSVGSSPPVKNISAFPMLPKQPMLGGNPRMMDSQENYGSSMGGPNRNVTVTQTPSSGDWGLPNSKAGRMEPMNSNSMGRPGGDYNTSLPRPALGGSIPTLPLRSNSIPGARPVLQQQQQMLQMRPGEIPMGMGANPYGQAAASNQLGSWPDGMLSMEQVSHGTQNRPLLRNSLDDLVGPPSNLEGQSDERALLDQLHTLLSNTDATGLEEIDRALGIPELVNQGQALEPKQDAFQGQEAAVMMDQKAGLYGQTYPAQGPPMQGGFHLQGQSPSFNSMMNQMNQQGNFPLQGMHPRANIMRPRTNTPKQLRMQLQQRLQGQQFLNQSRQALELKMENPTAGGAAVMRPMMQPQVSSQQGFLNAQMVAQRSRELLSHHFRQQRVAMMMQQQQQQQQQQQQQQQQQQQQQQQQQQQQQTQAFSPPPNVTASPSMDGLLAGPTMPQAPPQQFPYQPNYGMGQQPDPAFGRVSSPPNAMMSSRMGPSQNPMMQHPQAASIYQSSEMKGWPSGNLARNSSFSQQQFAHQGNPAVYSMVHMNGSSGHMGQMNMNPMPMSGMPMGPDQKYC

Take `Cc1ccc(NS(=O)(=O)c2ccc(OCC(=O)NCc3cccnc3)cc2)cc1`: the 50% effective concentration (EC50) in test [1], in test [2] and in test [3] was > 79.4 µM (not active) each time. Consider `C=CCc1ccccc1OCC(O)CN1CCN(c2ccccc2OC)CC1` (stereo not given), for which, in test [4], the EC50 was 5.31 µM (active).

For the molecule `O=C(NNc1nc(-c2ccccc2)cs1)c1ccccc1`, the IC50 in test [5] was 14.5 µM (active). Besides, the CC50 in test [6] was > 40 µM (active). Take `C=CCn1c(=O)c2ccccc2n2c(SCc3nc(N)nc(Nc4ccccc4C)n3)nnc12`: the EC50 in test [1], in test [2] and in test [3] was > 79.4 µM (not active) throughout. In the case of `COc1ccc(Cl)c(N2CCN(CCCNC(=O)Nc3ccc(C)cc3)CC2)c1`, the IC50 in test [7] was 6.56 µM (active). Turning to `Cc1ccc(C(=O)Nc2nnc(-c3cccs3)s2)cc1C`, the EC50 in test [1] is 9.65 µM (active); in test [2], 9.78 µM (active); in test [3], > 79.4 µM (not active). Turning to `COc1ccc(C(=O)N2c3ccccc3CC2C)cc1OC` (stereo not given), in test [7], the IC50 is 0.799 µM (not active). Same read-out and setting: the value for `CCOc1ccc(-c2ccc(/C=C3/C(=N)N4C=CSC4=NC3=O)o2)c([N+](=O)[O-])c1` was 1.48 µM (active). For the molecule `Cc1c(N)c(C(C)(C)C)cc(C(C)(C)C)c1[N+](=O)[O-]`, the half-maximal effective concentration (EC50) in test [4] is 4.22 µM (active). On to `CCCCOc1ccc(C(=O)N/C(=C/C=C/c2ccccc2)C(=O)O)cc1`, for which the concentration for a half-maximal effect (EC50) in test [1], in test [2] and in test [3] was > 79.4 µM (not active) throughout. Take `COc1cccc(O)c1CN1CCCC(C(=O)c2sccc2C)C1` (stereo not given): in test [4], the concentration for a half-maximal effect (EC50) is 3.35 µM (active).

Regarding `Cc1ccc(NC(=O)CN2CCc3ccccc3C2)cc1F`, the concentration giving a half-maximal response (EC50) in test [4] is 6.68 µM (active). As to `CCC1CCCCN1CCN1C(=O)C2C(C(=O)Nc3ccc(OC)cc3)C3C=CC2(O3)C1C(=O)NC1CCCCC1` (stereo not given), the half-maximal effective concentration (EC50) in test [4] was 0.0947 µM (active). In addition, at Protein skinhead-1, the IC50 is > 100 µM (inactive). On to `COc1ccc(C(CNC(=O)c2oc3ccc(Cl)cc3c2C)N2CCCCC2)cc1` (stereo not given), for which the concentration for a half-maximal effect (EC50) in test [4] is 15 µM (active). The same measure, in the same setting: with `OCc1ccccc1CNCc1ccccc1` the figure was 2.99 µM (active).

(Values after ChEMBL document CHEMBL1201862, “PubChem BioAssay data set” (2004).)
